Source: patent US12522583B2, “Benzimidazole derivatives and aza-benzimidazole derivatives as Janus kinase 2 inhibitors and uses thereof” (Dana-Farber Cancer Institute, Inc., priority 2018, dated 2026)

Assays:
Test in all cases: KINOMEscan
Assay type in all cases: binding
Conditions in all cases: read-out: percent control
[1] = target: ABL1(F317I)-nonphosphorylated (Homo sapiens (Human), UniProt P00519, F317I)
Excerpt: (§1) Example 2. In Vitro Kinase Selectivity Profiling of the Compounds of the Present Disclosure

[2] = target: ABL1(M351T)-phosphorylated (Homo sapiens (Human), UniProt P00519, M351T)
Excerpt: as §1

[3] = target: ABL1(Y253F)-phosphorylated (Homo sapiens (Human), UniProt P00519, Y253F)
Excerpt: as §1

BMX = BMX (Homo sapiens (Human), UniProt P51813)
Excerpt: as §1

CAMK1D = CAMK1D (Homo sapiens (Human), UniProt Q8IU85)
Excerpt: as §1

CAMK4 = CAMK4 (Homo sapiens (Human), UniProt Q16566)
Excerpt: as §1

CDK3 = CDK3 (Homo sapiens (Human), UniProt Q00526)
Excerpt: as §1

CDK4-cyclinD3 = CDK4-cyclinD3 (Homo sapiens (Human), UniProt P11802)
Excerpt: as §1

CDKL1 = CDKL1 (Homo sapiens (Human), UniProt Q00532)
Excerpt: as §1

DAPK3 = DAPK3 (Homo sapiens (Human), UniProt O43293)
Excerpt: as §1

DDR1 = DDR1 (Homo sapiens (Human), UniProt Q08345)
Excerpt: as §1

DRAK1 = DRAK1 (Homo sapiens (Human), UniProt Q9UEE5)
Sequence of DRAK1 (Q9UEE5 whole entry): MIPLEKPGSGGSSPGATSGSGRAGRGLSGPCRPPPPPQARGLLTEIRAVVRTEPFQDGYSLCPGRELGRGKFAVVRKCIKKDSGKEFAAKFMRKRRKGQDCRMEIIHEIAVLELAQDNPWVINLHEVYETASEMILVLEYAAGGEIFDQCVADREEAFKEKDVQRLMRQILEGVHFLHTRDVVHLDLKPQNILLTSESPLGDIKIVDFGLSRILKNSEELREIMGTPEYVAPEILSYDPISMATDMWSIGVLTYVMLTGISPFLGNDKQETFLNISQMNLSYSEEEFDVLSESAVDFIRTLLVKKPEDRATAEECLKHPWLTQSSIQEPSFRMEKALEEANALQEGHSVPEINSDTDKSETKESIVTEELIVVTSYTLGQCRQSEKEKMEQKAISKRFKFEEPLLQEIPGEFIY
Excerpt: as §1

EGFR(E746-A750del) = EGFR(E746-A750del) (Homo sapiens (Human), UniProt P00533, DEL746-750)
Excerpt: as §1

EGFR(L861Q) = EGFR(L861Q) (Homo sapiens (Human), UniProt P00533, L861Q)
Excerpt: as §1

FES = FES (Homo sapiens (Human), UniProt P07332)
Sequence of FES (P07332 whole entry): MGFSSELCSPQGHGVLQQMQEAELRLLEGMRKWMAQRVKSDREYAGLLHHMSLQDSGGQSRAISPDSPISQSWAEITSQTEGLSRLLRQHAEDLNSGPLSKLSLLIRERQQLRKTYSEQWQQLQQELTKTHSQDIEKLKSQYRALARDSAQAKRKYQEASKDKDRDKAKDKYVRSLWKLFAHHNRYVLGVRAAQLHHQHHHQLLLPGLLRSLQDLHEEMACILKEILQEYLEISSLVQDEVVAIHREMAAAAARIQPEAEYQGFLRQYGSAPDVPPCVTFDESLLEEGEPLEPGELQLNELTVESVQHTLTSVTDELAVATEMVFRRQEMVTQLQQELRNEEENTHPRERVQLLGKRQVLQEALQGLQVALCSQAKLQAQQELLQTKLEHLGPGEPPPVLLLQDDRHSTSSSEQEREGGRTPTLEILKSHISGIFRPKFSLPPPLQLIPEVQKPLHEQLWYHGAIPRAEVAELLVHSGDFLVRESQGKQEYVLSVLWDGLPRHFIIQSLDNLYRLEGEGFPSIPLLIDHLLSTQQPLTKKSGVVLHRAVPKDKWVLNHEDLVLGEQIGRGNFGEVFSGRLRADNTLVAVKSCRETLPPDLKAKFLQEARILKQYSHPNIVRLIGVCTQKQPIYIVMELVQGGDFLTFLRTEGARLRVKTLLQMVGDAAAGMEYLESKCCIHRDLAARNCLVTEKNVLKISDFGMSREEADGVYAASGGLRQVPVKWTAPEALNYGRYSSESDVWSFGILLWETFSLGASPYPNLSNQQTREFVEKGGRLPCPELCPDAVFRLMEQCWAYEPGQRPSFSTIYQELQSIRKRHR
Excerpt: as §1

FLT4 = FLT4 (Homo sapiens (Human), UniProt P35916)
Excerpt: as §1

GRK1 = GRK1 (Homo sapiens (Human), UniProt Q15835)
Sequence of GRK1 (Q15835 whole entry): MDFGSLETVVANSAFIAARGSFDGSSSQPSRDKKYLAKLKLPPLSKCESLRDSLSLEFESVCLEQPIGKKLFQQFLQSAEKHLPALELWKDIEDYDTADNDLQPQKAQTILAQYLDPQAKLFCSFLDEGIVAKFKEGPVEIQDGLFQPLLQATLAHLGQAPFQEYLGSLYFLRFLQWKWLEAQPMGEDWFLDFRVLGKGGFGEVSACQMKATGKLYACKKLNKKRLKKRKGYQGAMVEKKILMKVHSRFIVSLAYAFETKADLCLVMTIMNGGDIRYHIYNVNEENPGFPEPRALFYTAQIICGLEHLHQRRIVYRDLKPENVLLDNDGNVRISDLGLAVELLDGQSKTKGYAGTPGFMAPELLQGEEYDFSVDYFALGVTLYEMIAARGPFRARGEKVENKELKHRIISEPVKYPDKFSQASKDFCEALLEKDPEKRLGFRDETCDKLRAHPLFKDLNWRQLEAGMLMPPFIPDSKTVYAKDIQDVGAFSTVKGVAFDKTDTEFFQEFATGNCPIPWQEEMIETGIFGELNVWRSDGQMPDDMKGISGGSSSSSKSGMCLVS
Excerpt: as §1

[4] = target: JAK1(JH1domain-catalytic) (Homo sapiens (Human), UniProt P23458)
Excerpt: as §1

LRRK2(G20195) = LRRK2(G20195) (Homo sapiens (Human), UniProt Q5S007, G2019S)
Excerpt: as §1

MAP3K3 = MAP3K3 (Homo sapiens (Human), UniProt Q99759)
Excerpt: as §1

MARK2 = MARK2 (Homo sapiens (Human), UniProt Q7KZI7)
Excerpt: as §1

MARK4 = MARK4 (Homo sapiens (Human), UniProt Q96L34)
Excerpt: as §1

MYO3A = MYO3A (Homo sapiens (Human), UniProt Q8NEV4)
Excerpt: as §1

NEK10 = NEK10 (Homo sapiens (Human), UniProt Q6ZWH5)
Excerpt: as §1

NEK7 = NEK7 (Homo sapiens (Human), UniProt Q8TDX7)
Excerpt: as §1

PIM1 = PIM1 (Homo sapiens (Human), UniProt P11309)
Excerpt: as §1

PIP5K1A = PIP5K1A (Homo sapiens (Human), UniProt Q99755)
Excerpt: as §1

PKNB(M.tuberculosis) = PKNB(M.tuberculosis) (Mycobacterium tuberculosis (strain ATCC 25618 / H37Rv), UniProt P9WI81)
Excerpt: as §1

RIOK1 = RIOK1 (Homo sapiens (Human), UniProt Q9BRS2)
Excerpt: as §1

ROS1 = ROS1 (Homo sapiens (Human), UniProt P08922)
Sequence of ROS1 (P08922 28-2347): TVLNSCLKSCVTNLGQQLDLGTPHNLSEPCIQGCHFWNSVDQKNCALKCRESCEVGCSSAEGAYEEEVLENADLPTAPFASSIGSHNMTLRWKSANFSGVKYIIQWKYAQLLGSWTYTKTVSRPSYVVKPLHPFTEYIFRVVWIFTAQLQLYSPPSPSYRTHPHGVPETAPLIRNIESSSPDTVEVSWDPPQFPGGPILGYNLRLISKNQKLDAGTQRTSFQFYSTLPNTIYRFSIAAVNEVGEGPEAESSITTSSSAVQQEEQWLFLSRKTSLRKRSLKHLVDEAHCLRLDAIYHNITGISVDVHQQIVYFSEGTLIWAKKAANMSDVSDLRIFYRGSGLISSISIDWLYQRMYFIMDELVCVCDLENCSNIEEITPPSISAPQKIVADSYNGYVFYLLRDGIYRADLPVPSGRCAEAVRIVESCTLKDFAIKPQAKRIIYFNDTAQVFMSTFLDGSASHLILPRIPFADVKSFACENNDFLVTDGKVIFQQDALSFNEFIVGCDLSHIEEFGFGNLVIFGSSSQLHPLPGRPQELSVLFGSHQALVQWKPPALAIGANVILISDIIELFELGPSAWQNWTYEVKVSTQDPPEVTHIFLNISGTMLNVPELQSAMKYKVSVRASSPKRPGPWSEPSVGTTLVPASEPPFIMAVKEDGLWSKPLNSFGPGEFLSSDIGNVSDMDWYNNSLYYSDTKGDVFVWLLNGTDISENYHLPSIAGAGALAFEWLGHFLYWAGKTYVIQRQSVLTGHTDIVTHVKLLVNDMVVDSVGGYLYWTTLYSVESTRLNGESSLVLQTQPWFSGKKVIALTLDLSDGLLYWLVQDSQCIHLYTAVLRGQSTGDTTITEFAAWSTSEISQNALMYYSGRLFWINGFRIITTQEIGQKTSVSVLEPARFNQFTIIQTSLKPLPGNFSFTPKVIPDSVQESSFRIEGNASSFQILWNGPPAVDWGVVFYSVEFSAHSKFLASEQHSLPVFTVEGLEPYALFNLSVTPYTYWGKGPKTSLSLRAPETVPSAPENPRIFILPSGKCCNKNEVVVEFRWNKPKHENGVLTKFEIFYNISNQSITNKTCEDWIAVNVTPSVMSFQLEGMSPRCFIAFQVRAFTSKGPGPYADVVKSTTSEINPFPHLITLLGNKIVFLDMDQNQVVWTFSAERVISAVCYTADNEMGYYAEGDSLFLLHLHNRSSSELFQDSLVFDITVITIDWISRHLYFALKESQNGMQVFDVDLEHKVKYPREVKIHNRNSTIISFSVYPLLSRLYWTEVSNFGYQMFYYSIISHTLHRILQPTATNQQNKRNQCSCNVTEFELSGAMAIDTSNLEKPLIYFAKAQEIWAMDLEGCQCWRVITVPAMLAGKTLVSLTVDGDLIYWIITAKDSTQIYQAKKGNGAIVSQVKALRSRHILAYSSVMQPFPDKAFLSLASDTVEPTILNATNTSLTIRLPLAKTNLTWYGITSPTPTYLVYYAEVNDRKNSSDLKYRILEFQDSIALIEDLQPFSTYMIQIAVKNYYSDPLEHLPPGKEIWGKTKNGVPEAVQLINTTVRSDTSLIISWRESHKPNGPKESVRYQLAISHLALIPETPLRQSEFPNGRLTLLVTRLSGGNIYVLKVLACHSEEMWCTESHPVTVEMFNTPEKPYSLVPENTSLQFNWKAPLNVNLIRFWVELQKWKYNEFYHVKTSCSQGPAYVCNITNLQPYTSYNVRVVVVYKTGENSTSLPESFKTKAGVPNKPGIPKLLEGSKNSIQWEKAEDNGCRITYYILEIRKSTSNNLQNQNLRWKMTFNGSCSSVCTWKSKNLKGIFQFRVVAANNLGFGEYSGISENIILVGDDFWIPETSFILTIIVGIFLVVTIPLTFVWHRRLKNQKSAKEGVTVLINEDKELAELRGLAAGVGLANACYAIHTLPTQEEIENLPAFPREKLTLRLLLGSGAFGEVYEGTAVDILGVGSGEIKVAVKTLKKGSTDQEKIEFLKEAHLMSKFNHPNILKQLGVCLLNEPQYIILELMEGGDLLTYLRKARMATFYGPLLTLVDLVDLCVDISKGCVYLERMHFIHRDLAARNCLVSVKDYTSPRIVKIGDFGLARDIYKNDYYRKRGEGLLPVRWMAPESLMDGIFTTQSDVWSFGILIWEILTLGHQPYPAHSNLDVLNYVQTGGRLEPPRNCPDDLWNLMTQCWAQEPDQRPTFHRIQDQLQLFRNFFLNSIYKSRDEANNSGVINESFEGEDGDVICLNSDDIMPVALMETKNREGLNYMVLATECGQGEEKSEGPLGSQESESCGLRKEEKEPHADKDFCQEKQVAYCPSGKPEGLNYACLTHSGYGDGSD
Excerpt: as §1

[5] = target: RSK2(Kin.Dom.2-C-terminal) (Homo sapiens (Human), UniProt P51812)
Sequence of RSK2(Kin.Dom.2-C-terminal) (P51812 422-679 limits assumed): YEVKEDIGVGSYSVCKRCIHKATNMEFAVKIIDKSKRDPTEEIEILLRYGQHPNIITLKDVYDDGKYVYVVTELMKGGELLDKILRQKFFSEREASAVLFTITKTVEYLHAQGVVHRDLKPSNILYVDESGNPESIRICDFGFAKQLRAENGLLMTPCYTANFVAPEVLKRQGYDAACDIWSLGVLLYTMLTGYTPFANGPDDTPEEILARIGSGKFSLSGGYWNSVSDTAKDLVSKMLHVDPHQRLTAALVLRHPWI
Excerpt: as §1

[6] = target: RSK4(Kin.Dom.1-N-terminal) (Homo sapiens (Human), UniProt Q9UK32)
Sequence of RSK4(Kin.Dom.1-N-terminal) (Q9UK32 73-330 limits assumed): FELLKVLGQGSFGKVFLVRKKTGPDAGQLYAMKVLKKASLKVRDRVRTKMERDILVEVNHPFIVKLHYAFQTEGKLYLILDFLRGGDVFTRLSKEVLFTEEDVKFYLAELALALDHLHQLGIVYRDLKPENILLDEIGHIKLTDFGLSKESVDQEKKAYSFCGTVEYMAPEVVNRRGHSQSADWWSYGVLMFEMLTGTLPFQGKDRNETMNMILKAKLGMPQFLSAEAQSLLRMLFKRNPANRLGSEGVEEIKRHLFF
Excerpt: as §1

SBK1 = SBK1 (Homo sapiens (Human), UniProt Q52WX2)
Sequence of SBK1 (Q52WX2 whole entry): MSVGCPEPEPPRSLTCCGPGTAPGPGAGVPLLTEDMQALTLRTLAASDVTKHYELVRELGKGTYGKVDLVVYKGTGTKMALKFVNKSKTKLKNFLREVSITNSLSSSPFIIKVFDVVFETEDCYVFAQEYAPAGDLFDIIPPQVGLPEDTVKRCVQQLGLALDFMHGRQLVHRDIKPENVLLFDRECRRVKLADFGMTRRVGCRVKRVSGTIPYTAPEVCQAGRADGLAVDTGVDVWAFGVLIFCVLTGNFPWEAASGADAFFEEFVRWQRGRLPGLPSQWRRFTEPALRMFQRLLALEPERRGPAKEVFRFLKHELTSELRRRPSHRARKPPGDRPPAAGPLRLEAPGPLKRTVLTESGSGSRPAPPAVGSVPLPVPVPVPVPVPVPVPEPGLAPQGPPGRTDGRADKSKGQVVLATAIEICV
Excerpt: as §1

STK35 = STK35 (Homo sapiens (Human), UniProt Q8TDR2)
Excerpt: as §1

TAK1 = TAK1 (Homo sapiens (Human), UniProt O43318)
Excerpt: as §1

TSSK3 = TSSK3 (Homo sapiens (Human), UniProt Q96PN8)
Excerpt: as §1

VEGFR2 = VEGFR2 (Homo sapiens (Human), UniProt P35968)
Excerpt: as §1

VPS34 = VPS34 (Homo sapiens (Human), UniProt Q8NEB9)
Excerpt: as §1

WNK1 = WNK1 (Homo sapiens (Human), UniProt Q9H4A3)
Excerpt: as §1

Molecule `CCN1CCN(Cc2ccc(Nc3nc4ccc(Oc5ccnc(NC(C)=O)c5)c(C)c4n3C)cc2C(F)(F)F)CC1` [Compound I-6, N-(4-(2-(4-((4-ethylpiperazin-1-yl)methyl)-3-(trifluoromethyl)phenylamino)-1,7-dimethyl-1H-benzo[d]imidazol-6-yloxy)pyridin-2-yl)acetamide] has a remaining binding at 1 µM [1] of 7.4%, a remaining binding at 1 µM [2] of 27% and a remaining binding at 1 µM [3] of 5.5%. The remaining binding at 1 µM (BMX) was 91%, the remaining binding at 1 µM (CAMK1D) was 100% and the remaining binding at 1 µM (CAMK4) was 100%. For the same molecule, the remaining binding at 1 µM (CDK3) was 74%, the remaining binding at 1 µM (CDK4-cyclinD3) was 95% and the remaining binding at 1 µM (CDKL1) was 87%. The remaining binding at 1 µM (DAPK3) was 99%, the remaining binding at 1 µM (DDR1) was 0% and the remaining binding at 1 µM (DRAK1) was 99%. It also gave a remaining binding at 1 µM (EGFR(E746-A750del)) of 89%, a remaining binding at 1 µM (EGFR(L861Q)) of 100% and a remaining binding at 1 µM (FES) of 82%. It also gave a remaining binding at 1 µM (FLT4) of 0.7%, a remaining binding at 1 µM (GRK1) of 85% and a remaining binding at 1 µM [4] of 40%. For the same molecule, the remaining binding at 1 µM (LRRK2(G20195)) was 69%, the remaining binding at 1 µM (MAP3K3) was 0.95% and the remaining binding at 1 µM (MARK2) was 100%. For the same molecule, the remaining binding at 1 µM (MARK4) was 83%, the remaining binding at 1 µM (MYO3A) was 99% and the remaining binding at 1 µM (NEK10) was 79%. For the same molecule, the remaining binding at 1 µM (NEK7) was 95%, the remaining binding at 1 µM (PIM1) was 98% and the remaining binding at 1 µM (PIP5K1A) was 100%. The remaining binding at 1 µM (PKNB(M.tuberculosis)) was 82%, the remaining binding at 1 µM (RIOK1) was 100% and the remaining binding at 1 µM (ROS1) was 43%. It also gave a remaining binding at 1 µM [5] of 99%, a remaining binding at 1 µM [6] of 93% and a remaining binding at 1 µM (SBK1) of 89%. The remaining binding at 1 µM (STK35) was 100%, the remaining binding at 1 µM (TAK1) was 10% and the remaining binding at 1 µM (TSSK3) was 100%. It also gave a remaining binding at 1 µM (VEGFR2) of 1.7%, a remaining binding at 1 µM (VPS34) of 100% and a remaining binding at 1 µM (WNK1) of 100%.
Work on `CCN1CCN(Cc2ccc(Nc3nc4ccc(Oc5ccnc(NC(C)=O)c5)cc4n3C)cc2C(F)(F)F)CC1` [Compound I-2] yielded a remaining binding at 1 µM [1] of 37%, a remaining binding at 1 µM [2] of 37% and a remaining binding at 1 µM [3] of 44%. For the same molecule, the remaining binding at 1 µM (BMX) was 100%, the remaining binding at 1 µM (CAMK1D) was 85% and the remaining binding at 1 µM (CAMK4) was 98%. It also gave a remaining binding at 1 µM (CDK3) of 100%, a remaining binding at 1 µM (CDK4-cyclinD3) of 72% and a remaining binding at 1 µM (CDKL1) of 84%. It also gave a remaining binding at 1 µM (DAPK3) of 76%, a remaining binding at 1 µM (DDR1) of 0.05% and a remaining binding at 1 µM (DRAK1) of 100%. For the same molecule, the remaining binding at 1 µM (EGFR(E746-A750del)) was 91%, the remaining binding at 1 µM (EGFR(L861Q)) was 98% and the remaining binding at 1 µM (FES) was 100%. It also gave a remaining binding at 1 µM (FLT4) of 0.5%, a remaining binding at 1 µM (GRK1) of 82% and a remaining binding at 1 µM [4] of 30%. For the same molecule, the remaining binding at 1 µM (LRRK2(G20195)) was 100%, the remaining binding at 1 µM (MAP3K3) was 16% and the remaining binding at 1 µM (MARK2) was 100%. It also gave a remaining binding at 1 µM (MARK4) of 98%, a remaining binding at 1 µM (MYO3A) of 96% and a remaining binding at 1 µM (NEK10) of 100%. For the same molecule, the remaining binding at 1 µM (NEK7) was 88%, the remaining binding at 1 µM (PIM1) was 100% and the remaining binding at 1 µM (PIP5K1A) was 99%. For the same molecule, the remaining binding at 1 µM (PKNB(M.tuberculosis)) was 80%, the remaining binding at 1 µM (RIOK1) was 100% and the remaining binding at 1 µM (ROS1) was 73%. It also gave a remaining binding at 1 µM [5] of 98%, a remaining binding at 1 µM [6] of 100% and a remaining binding at 1 µM (SBK1) of 84%. It also gave a remaining binding at 1 µM (STK35) of 100%, a remaining binding at 1 µM (TAK1) of 28% and a remaining binding at 1 µM (TSSK3) of 86%. The remaining binding at 1 µM (VEGFR2) was 0.85%, the remaining binding at 1 µM (VPS34) was 87% and the remaining binding at 1 µM (WNK1) was 100%.
